From patent US20260248763A1 (BIO GENUINE (SHANGHAI) BIOTECH CO., LTD, priority 2023, published 2026) come the findings set out here.

The target of one experiment is T1, V1aR (Homo sapiens, UniProt P37288).
T1 construct: expressed in transfected cells; host or cells: V1a-CHO stably transfected cell line
Briefly: Ca2+ mobilization in cells stably expressing V1aR (FLIPR, antagonist mode). As to conditions: V1a-CHO stably transfected cell line. In kind it is cell-based. From the text:
Test Example 2. Determination of the Effect of the Compound of the Present Disclosure on Ca^2+ Mobilization in Cells Stably Expressing V1aR
To measure the antagonistic effect of the compound of the present disclosure on V1aR activity expressed in the V1a-CHO stably transfected cell line.
• F-12 (Hyclone, SH30026.01) • FLIPR CALCIUM 6 ASSAY KIT (Molecul Device, R8191) • Fetal Bovine Serum (FBS) (AusGeneX, FBS500-S) • Hygromycin B (Solarbio, H8080-1g) • DMSO (Sigma, D4540) • HBSS (Gibco 14025-092) • Probenecid (MCE, HY—B0545) • 0.36 mL 96 Round V-bottom Deep Well Plates for Laboratory (Biaosen P-0.36-BSA-96) • 384-well conical bottom polypropylene plate (Nunc, 264573) • Corning® 384-well Flat Clear Bottom Black Polystyrene TC-treated Microplates (Corning 3764)
• Biological safety cabinet (ECSO, AC2-6S1-TC) • Carbon dioxide cell incubator (ECSO, CCI-170B-8) • Inverted microscope (Olympus, CKX53) • Microplate low-speed centrifuge (Xiangzhi, TD5B) • FLIPR® Penta (Molecul Device, 5.0)
• 1. Cell plating: V1a-CHO cells were digested and harvested, resuspended and counted, and then inoculated into a 384-well cell plate at a density of: 1.2×10^4 cells/25 μL/well. The cell plate was then incubated in an incubator at 37° C. with 5% CO2 for about 16-20 h. • 2. The next day: after preparing Assay Buffer, 20× Component A was thawed to room temperature, diluted with Assay buffer to 1× loading buffer, and placed at room temperature for later use. • 3. The medium was removed from the cell plate, and 40 μL of 1× loading buffer was quickly added to each well. After centrifugation, the cell plate was incubated at 37° C. in the dark for 120 minutes. • 4. The serially diluted positive compound, serially diluted test compound, and agonist working solution were formulated. After mixing the serially diluted positive compound/serially diluted test compound with the agonist at a 1:1 ratio, 20 μL per well was transferred to a 384-well compound source plate. • 5. The cell plate, agonist source plate, and pipette tips were placed into their respective positions in the FLIPR instrument. Using FLIPR Tetra, 10 μL of the diluted agonist from Step 4 was added to each test well, and the data were collected at a wavelength of 515 nm-575 nm. • 6. The signal values were plotted against the compound concentrations, and the curve fitting and IC50 calculation were performed using the nonlinear regression method of GraphPad Prism software.
(In general: A change in cytosolic calcium serves as a functional read-out for many receptors and channels.)

The target in the next experiment is T2, OTR (Homo sapiens, UniProt P30559).
T2 construct: expressed in transfected cells; host or cells: OTR/HEK293 stably transfected cell line
T2 sequence (P30559 1-389): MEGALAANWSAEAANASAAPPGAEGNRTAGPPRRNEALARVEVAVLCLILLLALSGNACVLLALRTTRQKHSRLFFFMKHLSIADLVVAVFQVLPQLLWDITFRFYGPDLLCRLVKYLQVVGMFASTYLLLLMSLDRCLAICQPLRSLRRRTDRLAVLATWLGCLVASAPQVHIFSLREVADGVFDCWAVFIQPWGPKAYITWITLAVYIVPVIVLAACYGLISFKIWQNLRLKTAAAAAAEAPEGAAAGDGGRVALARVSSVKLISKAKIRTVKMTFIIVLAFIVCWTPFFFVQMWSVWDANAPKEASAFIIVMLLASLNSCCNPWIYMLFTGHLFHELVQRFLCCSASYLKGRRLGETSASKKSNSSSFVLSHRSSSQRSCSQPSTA
Briefly: Ca2+ mobilization in cells stably expressing OTR (FLIPR, antagonist mode). Type of experiment: cell-based. To be noted: OTR/HEK293 stably transfected cell line. In short, it runs like this:
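Antagonist mode: test compounds in 10-point 3-fold series were added on FLIPR to Fluo-4-loaded HEK293 cells stably expressing OTR, followed by reference agonist at its EC80, determined beforehand. The Max-Min calcium fluorescence response was fitted in Prism.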

pIC50: −log10 of the molar value.

T1 sequence (P37288 whole entry, species assumed): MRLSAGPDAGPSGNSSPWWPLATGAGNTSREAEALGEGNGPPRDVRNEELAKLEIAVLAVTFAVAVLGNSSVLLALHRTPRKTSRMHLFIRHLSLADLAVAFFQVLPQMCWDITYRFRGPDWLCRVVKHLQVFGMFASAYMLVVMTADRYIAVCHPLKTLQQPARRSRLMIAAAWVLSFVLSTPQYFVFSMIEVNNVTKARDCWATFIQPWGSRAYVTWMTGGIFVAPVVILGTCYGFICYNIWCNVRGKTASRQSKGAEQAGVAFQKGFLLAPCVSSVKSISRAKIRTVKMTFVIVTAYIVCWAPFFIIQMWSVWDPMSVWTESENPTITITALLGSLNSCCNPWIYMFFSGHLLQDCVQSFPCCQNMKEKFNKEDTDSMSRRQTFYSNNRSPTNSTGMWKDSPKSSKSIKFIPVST

As for `CO/N=C1/C[C@@H](C(C)O)N(C(=O)c2ccc(-c3ccccc3C)cc2)C1` (mixture of isomers) [Example C0067, (S, Z, RS)-(2-(1-Hydroxyethyl)-4-(methoxyimino)pyrrolidin-1-yl)(2′-methyl-[1,1′-biphenyl]-4-yl)methanone], the pIC50 (commonly the IC50 on a negative log10 scale, so that one unit is a factor of ten) was 6.65 against V1aR and 7.89 against OTR.
Taken in the same sequence, the figures for `CON=C1CC(CO)N(C(=O)c2ccc(-c3cccc(C#N)c3C)c3c2OCO3)C1` (single isomer, unassigned) [Example C0098] were 4.88 and 7.25.
Taken in the same sequence, the figures for `CO/N=C1/C[C@@H]([C@H](C)O)N(C(=O)c2ccc(-c3cccc(C#N)c3C)cc2)C1` (single isomer, unassigned) [Example C0111] were 5.63 and 7.90.
Taken in the same sequence, the figures for `CO/N=C1\C[C@@H]([C@@H](C)O)N(C(=O)c2ccc(-c3cccc(C#N)c3C)cc2)C1` (single isomer, unassigned) [Example C0113] were 5.81 and 7.26.
Take `CO/N=C1/C[C@@H](CO)N(C(=O)c2cnc(-c3cccc(C)c3C)cn2)C1` [Example A0061, (S, Z)-(5-(2,3-Dimethylphenyl)pyrazin-2-yl)(2-(hydroxymethyl)-4-(methoxyimino)pyrrolidin-1-yl)methanone]: the pIC50 on V1aR was 5.62; at OTR, 7.00.
Taken in the same sequence, the figures for `CO/N=C1/C[C@@H](CO)N(C(=O)c2ccc(-c3cccc(C)c3C)c(C(F)F)c2)C1` [Example A0134, (S,Z)-(2-(Difluoromethyl)-2′, 3′-dimethyl-[1,1′-biphenyl]-4-yl)(2-(hydroxymethyl)-4-(methoxyimino)pyrrolidin-1-yl)methanone] were 5.24 and 7.88.
Taken in the same sequence, the figures for `CO/N=C1/C[C@@H](CO)N(C(=O)c2ccc(-c3cccc(C)c3C)c(OCCO)c2)C1` [Example A0148, (S, Z)-(2-(2-Hydroxyethoxy)-2′,3′-dimethyl-[1,1′-biphenyl]-4-yl)(2-(hydroxymethyl)-4-(methoxyimino)pyrrolidin-1-yl)methanone] were 6.14 and 7.46.
Taken in the same sequence, the figures for `CO/N=C1/C[C@@H](CO)N(C(=O)c2ccc(-c3cccc(C)c3C)c(C(=O)NC3COC3)c2)C1` [Example A0157, (S, Z)-4-(2-(Hydroxymethyl)-4-(methoxyimino)pyrrolidine-1-carbonyl)-2′, 3′-dimethyl-N-(oxetan-3-yl)-[1,1′-biphenyl]-2-carboxamide] were 5.17 and 6.92.
Regarding `CO/N=C1/C[C@@H](CO)N(C(=O)c2ccc(-c3cccc(C#N)c3C)c3c2OCCN3C)C1` [Example A0162], the pIC50 is 6.23 against V1aR and 7.50 against OTR.
Taken in the same sequence, the figures for `CO/N=C1/C[C@@H](CO)N(C(=O)c2ccc(-c3cccc(C#N)c3C)c3c2cnn3C)C1` [Example A0167, 3-(4-[(2S,4Z)-2-(Hydroxymethyl)-4-(methoxyimino)pyrrolidine-1-carbonyl]-1-methyl-1H-indazol-7-yl)-2-methylbenzonitrile] were 5.83 and 7.30.
Taken in the same sequence, the figures for `CO/N=C1/C[C@@H](CO)N(C(=O)c2ccc(-c3cccc(C#N)c3C)c(C#N)c2)C1` [Example A0173, 2-(3-Cyano-2-methylphenyl)-5-[(2S, 4Z)-2-(hydroxymethyl)-4-(methoxyimino)pyrrolidine-1-carbonyl]benzonitrile] were 5.06 and 7.44.
For `COCCOc1cc(C(=O)N2C/C(=N\OC)C[C@H]2CO)ccc1-c1cccc(C#N)c1C` [Example A0191, (S, Z)-4′-(2-(Hydroxymethyl)-4-(methoxyimino)pyrrolidine-1-carbonyl)-2′-(2-methoxyethoxy)-2-methyl-[1, 1′-biphenyl]-3-carbonitrile], the pIC50 on V1aR is 5.99; against OTR, 7.77.
`CO/N=C1/C[C@@H](CO)N(C(=O)c2ccc(-c3cccc(C#N)c3C)c(OC)n2)C1` [Example A0215, 3-(6-[(2S, 4Z)-2-(Hydroxymethyl)-4-(methoxyimino)pyrrolidine-1-carbonyl]-2-methoxypyridin-3-yl)-2-methylbenzonitrile]: the pIC50 against V1aR is 4.95; at OTR, 7.23.
Taken in the same sequence, the figures for `CO/N=C1/C[C@@H](CO)N(C(=O)c2ccc(-c3cccc(C#N)c3C)c3c2OCCCO3)C1` [Example A0235, (S,Z)-3-(9-(2-(Hydroxymethyl)-4-(methoxyimino)pyrrolidine-1-carbonyl)-3,4-dihydro-2H-benzo[b][1,4]dioxepin-6-yl)-2-methylbenzonitrile] were 5.87 and 7.64.
Taken in the same sequence, the figures for `CO/N=C1/C[C@@H](CO)N(C(=O)c2ccc(-c3cccc(C#N)c3C)cc2C)C1` [Example A0241, 3-(4-[(2S,4Z)-2-(Hydroxymethyl)-4-(methoxyimino)pyrrolidine-1-carbonyl]-3-methylphenyl)-2-methylbenzonitrile] were 5.21 and 7.69.
As for `CO/N=C1/C[C@@H](CO)N(C(=O)c2ccc(-c3cccc(C#N)c3C)c(OC)c2)C1` [Example A0242, (S,Z)-4′-(2-(Hydroxymethyl)-4-(methoxyimino)pyrrolidine-1-carbonyl)-2′-methoxy-2-methyl-[1,1′-biphenyl]-3-carbonitrile], the pIC50 was 5.81 against V1aR and 7.97 at OTR.
Taken in the same sequence, the figures for `CO/N=C1/C[C@@H](CO)N(C(=O)c2ccc(-c3cccc(C#N)c3C)cc2OC)C1` [Example A0243] were 5.13 and 7.47.
In the case of `CO/N=C1/C[C@@H](CO)N(C(=O)c2ccc(-c3cccc(C#N)c3C)c(Cl)c2)C1` [Example A0246, 3-(2-Chloro-4-[(2S,4Z)-2-(hydroxymethyl)-4-(methoxyimino)pyrrolidine-1-carbonyl]phenyl)-2-methylbenzonitrile], the negative-log IC50 (pIC50) against V1aR was 5.73; on OTR, 7.62.
Taken in the same sequence, the figures for `CO/N=C1\CN(C(=O)c2ccc(-c3ccccc3C)cc2)[C@](C)(CO)C1` [Example C0021, (S, Z)-(2-(Hydroxymethyl)-4-(methoxyimino)-2-methylpyrrolidin-1-yl)(2′-methyl-[1,1′-biphenyl]-4-yl)methanone] were 6.06 and 7.13.
On to `CO/N=C1\C[C@@H](CO)N(C(=O)c2ccc(-c3cccc(C)c3C)cc2)C1` [Example C0035, (S,E)-(2′,3′-Dimethyl-[1,1′-biphenyl]-4-yl)(2-(hydroxymethyl)-4-(methoxyimino)pyrrolidin-1-yl)methanone], for which the negative logarithm of the IC50 (pIC50) at V1aR is 6.18; against OTR, 7.09.
For `CO/N=C1\C[C@@H](CO)N(C(=O)c2ccc(-c3ccc(F)c(C#N)c3C)c3c2OCCO3)C1` [Example C0148, (S,E)-6-Fluoro-3-(8-(2-(hydroxymethyl)-4-(methoxyimino)pyrrolidine-1-carbonyl)-2,3-dihydrobenzo[b][1,4]dioxin-5-yl)-2-methylbenzonitrile], the pIC50 against OTR was 6.80.
On the same count and under the same terms, the figure for `CO/N=C1\C[C@@H](CO)N(C(=O)c2ccc(-c3cccc(C#N)c3C)cc2F)C1` [Example C0156, (S,E)-3′-Fluoro-4′-(2-(hydroxymethyl)-4-(methoxyimino)pyrrolidine-1-carbonyl)-2-methyl-[1,1′-biphenyl]-3-carbonitrile] is 7.13; for `CO/N=C1\C[C@@H](C(C)(C)O)N(C(=O)c2ccc(-c3cccc(C#N)c3C)cc2)C1` [Example C0163, (S,E)-4′-(2-(2-Hydroxypropan-2-yl)-4-(methoxyimino)pyrrolidine-1-carbonyl)-2-methyl-[1,1′-biphenyl]-3-carbonitrile] it is 7.14.
